{"source": "patent US8415393B2", "about": "“Anti-bacterial drug targeting of genome maintenance interfaces” (Wisconsin Alumni Research Foundation, priority 2007, dated 2013)", "molecules": {"B1": {"name": "ExoI Arg148 Ala variant (enzyme)", "chain": "MMNDGKQQSTFLFHDYETFGTHPALDRPAQFAAIRTDSEFNVIGEPEVFYCKPADDYLPQPGAVLITGITPQEARAKGENEAAFAARIHSLFTVPKTCILGYNNVRFDDEVTRNIFYRNFYDPYAWSWQHDNSRWDLLDVMRACYALAPEGINWPENDDGLPSFRLEHLTKANGIEHSNAHDAMADVYATIAMAKLVKTRQPRLFDYLFTHRNKHKLMALIDVPQMKPLVHVSGMFGAWRGNTSWVAPLAWHPENRNAVIMVDLAGDISPLLELDSDTLRERLYTAKTDLGDNAAVPVKLVHINKCPVLAQANTLRPEDADRLGINRQHCLDNLKILRENPQVREKVVAIFAEAEPFTPSDNVDAQLYNGFFSDADRAAMKIVLETEPRNLPALDITFVDKRIEKLLFNYRARNFPGTLDYAEQQRWLEHRRQVFTPEFLQGYADELQMLVQQYADDKEKVALLKALWQYAEEIV", "notes": "peptide-A-site variant; also called R148A; Arg148 variant"}, "B2": {"name": "ExoI Asp319 Ala variant (enzyme)", "chain": "B1 chain with A148R, D319A", "notes": "also called D319A; Asp319 variant"}, "B3": {"name": "ExoI Gln311 Ala variant (enzyme)", "chain": "B1 chain with A148R, Q311A", "notes": "peptide-A-site variant; also called Q311A; Gln311 variant"}, "B4": {"name": "ExoI Arg338 Ala variant (enzyme)", "chain": "B1 chain with A148R, R338A", "notes": "basic ridge variant; also called R338A; Arg338 variant"}, "B5": {"name": "ExoI Arg316 Ala variant (enzyme)", "chain": "B1 chain with A148R, R316A", "notes": "peptide-A-site variant; also called R316A; Arg316 variant"}}, "key": {"[1]": {"tested_on": "E. coli 4213 (imp4213, compromised cell wall)", "experiment": "microbe, parasite or virus in culture", "format": "cell-based", "details": "Escherichia coli", "protocol": "The compromised cell wall allows the chemicals to pass through it more readily.\n(§1) 100 μL of LB containing E. coli 1655, E. coli 4213, or S. aureus at A ˜0.05 OD 600 was aliquoted in 96 well plates. One μL of compound in DMSO was added to final concentrations given. Plates were incubated at 37° C. with shaking at 250 RPM. Rate of growth was calculated by determining the average change in OD/hour that took place between hours 3 and 7 (log growth phase). The graphs shown herein are plots of this bacterial growth rate (change in OD/h) against inhibitor concentration in μM."}, "[2]": {"biological_target": "Exonuclease I/SSB-Ct complex (Escherichia coli, UniProt P04995)", "sequence (P04995 whole entry, one chain of several)": "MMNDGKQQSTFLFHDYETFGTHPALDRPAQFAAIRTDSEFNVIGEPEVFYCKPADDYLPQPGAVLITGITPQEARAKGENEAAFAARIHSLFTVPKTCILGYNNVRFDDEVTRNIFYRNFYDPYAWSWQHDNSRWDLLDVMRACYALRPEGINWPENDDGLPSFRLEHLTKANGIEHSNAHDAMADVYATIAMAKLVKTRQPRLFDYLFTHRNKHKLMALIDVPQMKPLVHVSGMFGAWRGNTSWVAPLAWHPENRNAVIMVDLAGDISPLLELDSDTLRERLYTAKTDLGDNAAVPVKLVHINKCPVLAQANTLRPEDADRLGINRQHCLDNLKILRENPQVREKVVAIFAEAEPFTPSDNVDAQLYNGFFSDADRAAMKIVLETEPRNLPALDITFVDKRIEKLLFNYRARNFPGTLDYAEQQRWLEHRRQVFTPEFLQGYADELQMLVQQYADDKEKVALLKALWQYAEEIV", "experiment": "Fluorescence polarization competition: inhibition of fluorescein-SSB C-terminal peptide binding to Exonuclease I (HTS and Ki determination)", "details": "for peptide binding inhibition: ExoI/SSB-Ct peptide", "protocol": "Peptide binding assays were performed in solution, using the peptides from above, and Exonuclease I, in the absence or presence of various compounds. Different amounts of Exonuclease I (ExoI) were used in the peptide binding assays. […] Fluorescence polarization (FP) was measured at 25° C. in triplicate; the average FP value was plotted with standard deviation of the mean shown as error.\nConcentrated Exonuclease I was dialyzed overnight into 2 liters dilution buffer (DB) (20 mM Tris pH 8.0 HCl, 100 mM NaCl, 1 mM MgCl2, and 1 mM Beta-Mercaptoethanol). […] After sitting at room temperature for 5 min, a liquid handling system was used to aliquot this solution into 384 well plates providing 30 microliters/well. One microliter of 1 mM compound was then added. The screened compounds were obtained from the ChemBridge DIVERSet library (ChemBridge Corporation, San Diego, Calif.), from the Maybridge HitFinder library (Thermo Fisher Scientific, Waltham, Mass.), from the ChemDiv library (Chemical Diversity Labs, San Diego, Calif.), or from the Known Bioactive Library—KBA01.\nThe FP (fluorescence polarization) values for each well were read using a (plate reader) 5 minutes after compound addition.\nIncreasing amounts of compound were titrated into peptide protein mixture until FP values were lowered to values given by only fluorescently labeled peptide alone. Ki values were determined using the Ki calculator for fluorescence-based competitive binding assays of Prof. Shaomeng Wang, University of Michigan (Nikolovska-Coleska et al., 2004, Anal. Biochem. 332: 261-273)."}, "[3]": {"tested_on": "red blood cells", "experiment": "In vitro hemolysis", "format": "cell-based", "details": "for % hemolysis at given concentration: 1 hour; for Hemolysis: Table 3, minimum concentration necessary to lyse red blood cells", "protocol": "The identified small molecules were incubated with red blood cells to see what percentage of cells would lyse after 1 hour. Estimated hemolysis data are due to problem with reading absorbance, when the compound absorbs at the same wavelength as heme or if the compound precipitates. In such instances it is difficult to quantitate the absorbance readings; however, visual determination of how many cells have lysed can then be performed, which provides an estimate of cell lysis."}, "[4]": {"tested_on": "Staphylococcus aureus 12598", "experiment": "Bacterial growth assay in LB liquid media, S. aureus", "format": "cell-based", "protocol": "as §1"}, "[5]": {"tested_on": "HT-29 (human colorectal adenocarcinoma) cells", "experiment": "Mammalian cell toxicity, CellTiter-Glo cell viability assay", "format": "cell-based", "protocol": "The toxicity of the identified antimicrobial candidate compounds was tested using human colorectal adenocarcinoma cells in vitro. […] The mammalian cells were tested using a CellTiter-Glo cell viability assay (Promega, Madison, Wis.)."}, "[6]": {"biological_target": "T1, fluorescein-labeled SSB C-terminal peptide, fluorescein-WMDFDDDIPF (E. coli)", "T1 construct": "also called F-WT; F-SSB-Ct", "T1 peptide": "fluorescein-WMDFDDDIPF", "experiment": "equilibrium fluorescence anisotropy"}, "[7]": {"details": "read-out: IC50 μM inhibitor, inhibition of E. coli growth"}, "[8]": {"details": "read-out: IC(50) E. coli imp4213"}, "[9]": {"details": "Staphylococcus aureus, 12598, Table 3, reduce growth 50% in liquid media, unit not given (Table 5 gives μM), read-out: IC(50) S. aureus"}, "[10]": {"details": "Staphylococcus aureus, 12598, Table 5, read-out: IC50 μM inhibitor, inhibition of S. aureus growth"}, "[11]": {"details": "HT-29 cells, CellTiter-Glo, read-out: IC50"}}, "note": "Positions count from the first letter of the chain named. In names and notes the source's numbering stands. Entries after “also recorded” stand apart in the source; their conditions may differ. Like-named read-outs stand apart in the source and are kept apart here. Where no end group is shown, it is not given here. fluorescein = fluorescein moiety attached to the N-terminus of the peptide (N-terminal fluorescein label)"}
{"molecule": "CC1=NN(c2nc3ccccc3s2)C(=O)C1", "note": "[Compound 31, 2-(1,3-benzothiazol-2-yl)-5-methyl-2,4-dihydro-3H-pyrazol-3-one]", "values": [{"measurement": "IC50", "setting": "[1]; [7]", "value": "50 to 100", "unit": "µM"}, {"measurement": "IC50", "setting": "[1]; [8]", "value": "50 to 100", "unit": "µM"}, {"measurement": "peptide binding inhibition", "setting": "[2]", "value": "much weaker binding; also recorded: did not inhibit binding"}, {"measurement": "% hemolysis at given concentration", "setting": "[3]; >800 μM", "value": 0, "unit": "% >800"}, {"measurement": "Hemolysis", "setting": "[3]", "value": ">800", "unit": "µM"}]}
{"molecule": "Cc1noc(C)c1C(=O)Nc1nc2ccc(Cl)cc2s1", "note": "[Compound 42, N-(6-chloro-1,3-benzothiazol-2-yl)-3,5-dimethyl-4-isoxazolecarboxamide]", "values": [{"measurement": "IC50", "setting": "[4]; [9]", "value": 9, "unit": "µM"}, {"measurement": "IC50", "setting": "[4]; [10]", "value": 9, "unit": "µM"}, {"measurement": "% hemolysis at given concentration", "setting": "[3]; >800 μM", "value": 0, "unit": "% >800"}, {"measurement": "Hemolysis", "setting": "[3]", "value": ">800", "unit": "µM"}, {"measurement": "IC50", "setting": "[5]; [11]", "value": 51, "unit": "µM"}]}
{"molecule": "O=[N+]([O-])c1ccc(Oc2cc(C(F)(F)F)ccc2Cl)cc1O", "note": "[Compound 37, 5-[2-chloro-5-(trifluoromethyl)phenoxy]-2-nitrophenol]", "values": [{"measurement": "IC50", "setting": "[1]; [7]", "value": 33, "unit": "µM"}, {"measurement": "IC50", "setting": "[1]; [8]", "value": 33, "unit": "µM"}, {"measurement": "Ki", "setting": "[2]", "value": 0.7, "unit": "µM"}, {"measurement": "Ki", "setting": "[2]; Ki estimates, Table 2", "value": 0.7, "unit": "µM"}, {"measurement": "IC50", "setting": "[4]; Staphylococcus aureus, 12598, read-out: IC50 μM inhibitor, inhibition of S. aureus growth", "value": 2.5, "unit": "µM"}, {"measurement": "IC50", "setting": "[4]; Staphylococcus aureus, 12598, read-out: IC(50) S. aureus", "value": 2.5, "unit": "µM"}, {"measurement": "% hemolysis at given concentration", "setting": "[3]; 800 μM", "value": "estimated 0% 800"}, {"measurement": "Hemolysis", "setting": "[3]", "value": ">800", "unit": "µM"}, {"measurement": "IC50", "setting": "[5]; HT-29", "value": "> 100", "unit": "µM"}]}
{"molecule": "O=C(O)c1ccccc1Nc1cccc(C(F)(F)F)c1", "note": "[Compound 32, 2-[3-(trifluoromethyl)anilino]benzoic acid]", "values": [{"measurement": "IC50", "setting": "[1]; [7]", "value": 33, "unit": "µM"}, {"measurement": "IC50", "setting": "[1]; [8]", "value": 33, "unit": "µM"}, {"measurement": "Ki", "setting": "[2]", "value": 1.5, "unit": "µM"}, {"measurement": "Ki", "setting": "[2]; Ki estimates, Table 2", "value": 1.5, "unit": "µM"}, {"measurement": "IC50", "setting": "[4]; [9]", "value": 30, "unit": "µM"}, {"measurement": "IC50", "setting": "[4]; [10]", "value": 30, "unit": "µM"}, {"measurement": "% hemolysis at given concentration", "setting": "[3]; >800 μM", "value": 0, "unit": "% >800"}, {"measurement": "Hemolysis", "setting": "[3]", "value": ">800", "unit": "µM"}, {"measurement": "IC50", "setting": "[5]; [11]", "value": "> 100", "unit": "µM"}]}
{"molecule": "CC(C)c1cc(O)n(-c2nc3ccccc3s2)n1", "note": "[Compound 29, 1-(1,3-benzothiazol-2-yl)-3-isopropyl-1H-pyrazol-5-ol]", "values": [{"measurement": "IC50", "setting": "[1]; [7]", "value": 88, "unit": "µM"}, {"measurement": "IC50", "setting": "[1]; [8]", "value": 88, "unit": "µM"}, {"measurement": "peptide binding inhibition", "setting": "[2]", "value": "did not inhibit binding"}, {"measurement": "% hemolysis at given concentration", "setting": "[3]; >800 μM", "value": 0, "unit": "% >800"}, {"measurement": "Hemolysis", "setting": "[3]", "value": ">800", "unit": "µM"}, {"measurement": "IC50", "setting": "[5]; HT-29", "value": "> 100", "unit": "µM"}]}
{"molecule": "Cc1nn(-c2nc3ccccc3s2)c(O)c1C", "note": "[Compound 28, 1-(1,3-benzothiazol-2-yl)-3,4-dimethyl-1H-pyrazol-5-ol]", "values": [{"measurement": "IC50", "setting": "[1]; [7]", "value": 38, "unit": "µM"}, {"measurement": "IC50", "setting": "[1]; [8]", "value": 38, "unit": "µM"}, {"measurement": "peptide binding inhibition", "setting": "[2]", "value": "did not inhibit binding"}, {"measurement": "% hemolysis at given concentration", "setting": "[3]; >800 μM", "value": 0, "unit": "% >800"}, {"measurement": "Hemolysis", "setting": "[3]", "value": ">800", "unit": "µM"}, {"measurement": "IC50", "setting": "[5]; HT-29", "value": "> 100", "unit": "µM"}]}
{"molecule": "CC1=NN(c2nc3ccc(Cl)cc3s2)C(=O)C1", "note": "[Compound 46, 1-(6-chloro-1,3-benzothiazol-2-yl)-3-methyl-4,5-dihydro-1H-pyrazol-5-one]", "values": [{"measurement": "Ki", "setting": "[2]", "value": 1.5, "unit": "µM"}, {"measurement": "Ki", "setting": "[2]; Ki estimates, Table 2", "value": 1.5, "unit": "µM"}, {"measurement": "% hemolysis at given concentration", "setting": "[3]; >800 μM", "value": 0, "unit": "% >800"}, {"measurement": "Hemolysis", "setting": "[3]", "value": ">800", "unit": "µM"}, {"measurement": "IC50", "setting": "[5]; [11]", "value": 55, "unit": "µM"}]}
{"molecule": "B1", "values": [{"measurement": "fold weaker binding than wild-type ExoI", "setting": "[6]", "value": "10 to 100", "unit": "fold"}]}
{"molecule": "B2", "values": [{"measurement": "fold binding defect", "setting": "[6]", "value": 2, "unit": "fold"}]}
{"molecule": "B3", "values": [{"measurement": "fold binding defect relative to wild-type ExoI", "setting": "[6]", "value": 2, "unit": "fold"}]}
{"molecule": "B4", "values": [{"measurement": "fold binding defect", "setting": "[6]", "value": 3, "unit": "fold"}]}
{"molecule": "B5", "values": [{"measurement": "fold weaker binding than wild-type ExoI", "setting": "[6]", "value": "10 to 100", "unit": "fold"}]}
